# Structures can show the parent of a compound that is named as a salt. Where two headings read alike, the source gives them in different places.
# Target: PDE4D7 (Homo sapiens (Human), UniProt Q08499)
# Conditions: read-out: PDE4D7 IC50
# PDE4D7, sequence (Q08499 other isoform, or with tags, fused parts or gaps): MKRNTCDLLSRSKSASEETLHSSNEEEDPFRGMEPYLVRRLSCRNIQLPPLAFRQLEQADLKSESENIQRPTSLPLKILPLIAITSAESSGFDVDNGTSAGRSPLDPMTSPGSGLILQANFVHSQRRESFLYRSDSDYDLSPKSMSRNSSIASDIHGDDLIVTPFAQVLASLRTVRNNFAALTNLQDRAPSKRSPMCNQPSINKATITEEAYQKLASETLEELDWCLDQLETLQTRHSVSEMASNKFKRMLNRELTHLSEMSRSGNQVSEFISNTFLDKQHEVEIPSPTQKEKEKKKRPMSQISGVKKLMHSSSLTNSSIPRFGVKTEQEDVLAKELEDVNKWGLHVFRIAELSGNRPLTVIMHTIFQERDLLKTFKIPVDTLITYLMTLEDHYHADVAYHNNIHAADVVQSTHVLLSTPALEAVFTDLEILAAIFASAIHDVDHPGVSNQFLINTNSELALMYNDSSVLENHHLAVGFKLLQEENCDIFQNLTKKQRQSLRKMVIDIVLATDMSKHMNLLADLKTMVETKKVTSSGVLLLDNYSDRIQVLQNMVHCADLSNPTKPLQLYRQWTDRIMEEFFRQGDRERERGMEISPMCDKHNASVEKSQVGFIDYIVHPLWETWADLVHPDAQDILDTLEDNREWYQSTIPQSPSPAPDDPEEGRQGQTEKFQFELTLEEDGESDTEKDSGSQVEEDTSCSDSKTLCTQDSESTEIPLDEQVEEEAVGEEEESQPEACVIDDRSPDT
IC50 (PDE4D7 without asterisk),Structure (SMILES),IC50
> 1000 nM,"NC(=O)Cc1ccc(Nc2cc(-c3ccc[nH]3)nc3c2CCC3)cc1 [Example 133, 2-(4-((2-(1H-Pyrrol-2-yl)-6,7-dihydro-5H-cyclopenta[b]pyridin-4-yl)amino)phenyl)acetamide hydrochloride]",
> 1000 nM,"NC(=O)Cc1ccc(Nc2cc(-c3cccc(Cl)c3)nc3c2CCC3)cc1F [Example 112, 2-(4-((2-(3-Chlorophenyl)-6,7-dihydro-5H-cyclopenta[b]pyridin-4-yl)amino)-2-fluorophenyl)acetamide hydrochloride]",
> 1000 nM,"Cc1nc(Nc2ccc(CC(=O)O)cc2)nc(-c2ccco2)n1 [Example 24, 2-(4-((4-(furan-2-yl)-6-methyl-1,3,5-triazin-2-yl)amino)phenyl)acetic acid]",
< 1000 nM,"O=S1(=O)CCCc2nc(C3CCCC3)nc(Cc3ccc(CCO)cc3)c21 [Example 288, 2-Cyclopentyl-4-(4-(2-hydroxyethyl)benzyl)-7,8-dihydro-6H-thiopyrano[3,2-d]pyrimidine 5,5-dioxide]",
> 1000 nM,"NC(=O)CCc1ccc(Nc2cc(-c3cccc(Cl)c3)nc3c2CCC3)cc1 [Example 119, 3-(4-((2-(3-chlorophenyl)-6,7-dihydro-5H-cyclopenta[b]pyridin-4-yl)amino)phenyl)propanamide hydrochloride]",
> 1000 nM,"CCc1cc(Nc2ccc(C(CO)C(F)(F)F)cc2)nc(-c2cccc(Cl)c2)n1 (stereo not drawn) [Example 186, 2-(4-((2-(3-Chlorophenyl)-6-ethylpyrimidin-4-yl)amino)phenyl)-3,3,3-trifluoropropan-1-ol]",
> 1000 nM,"OB1OCc2cc(Nc3nc(-c4cccc(Cl)c4)nc4c3CCC4)ccc21 [Example 294, 2-(3-Chlorophenyl)-N-(1-hydroxy-3H-2,1-benzoxaborol-5-yl)-6,7-dihydro-5H-cyclopenta[d]pyrimidin-4-amine]",
< 1000 nM,"NC(=O)Cc1ccc(Nc2nc(-c3cccc(Cl)c3)nc3c2SCCC3)cc1 [Example 271, 2-(4-((2-(3-chlorophenyl)-7,8-dihydro-6H-thiopyrano[3,2-d]pyrimidin-4-yl)amino)phenyl)acetamide]",
< 1000 nM,"CCc1nc(Nc2ccc(CC(N)=O)cc2)cc(-c2cccc(Cl)c2)n1 [Example 265, 2-(4-((6-(3-chlorophenyl)-2-ethylpyrimidin-4-yl)amino)phenyl)acetamide]",
> 1000 nM,"CCc1c(C)nc(-c2ccc(Cl)s2)nc1Nc1ccc(Cc2noc(=O)[nH]2)cc1 [Example 302, 3-[[4-[[2-(5-Chloro-2-thienyl)-5-ethyl-6-methyl-pyrimidin-4-yl]amino]phenyl]methyl]-4H-1,2,4-oxadiazol-5-one]",
> 1000 nM,"CCc1c(C)nc(-c2ccc(Cl)s2)nc1Nc1ccc(Cc2nc(C(=O)OC)c[nH]2)cc1 [Example 305, Methyl 2-[[4-[[2-(5-chloro-2-thienyl)-5-ethyl-6-methyl-pyrimidin-4-yl]amino]phenyl]methyl]-1H-imidazole-4-carboxylate]",
> 1000 nM,"OCC(O)c1ccc(Nc2nc(-c3cccc(Cl)c3)nc3c2CCC3)cc1 (stereo not drawn) [Example 175, 1-(4-((2-(3-Chlorophenyl)-6,7-dihydro-5H-cyclopenta[d]pyrimidin-4-yl)amino)phenyl)ethane-1,2-diol]",
> 1000 nM,"COC(=O)Cc1ccc(Cc2cc(C(F)(F)F)nc(-c3cccc(Cl)c3)n2)cc1 [Example 203, Methyl 2-(4-((2-(3-chlorophenyl)-6-(trifluoromethyl)pyrimidin-4-yl)methyl)phenyl)acetate]",
> 1000 nM,"Cc1cccc(-c2cc(Nc3ccc(CCO)cc3)c3c(n2)CCC3)c1 [Example 160, 2-(4-((2-(m-Tolyl)-6,7-dihydro-5H-cyclopenta[b]pyridin-4-yl)amino)phenyl)ethanol hydrochloride]",
> 1000 nM,"C=Cc1ccc(Nc2nc(-c3cccc(Cl)c3)nc3c2CCC3)cc1 [Example 174, 2-(3-Chlorophenyl)-N-(4-vinylphenyl)-6,7-dihydro-5H-cyclopenta[d]pyrimidin-4-amine]",
< 1000 nM,"CCc1nc(Nc2ccc(CC#N)cc2)nc(-c2cccc(Cl)c2)n1 [Example 52, 2-(4-(4-(3-chlorophenyl)-6-ethyl-1,3,5-triazin-2-ylamino)phenyl)acetonitrile]",
> 1000 nM,"CCc1c(C)nc(-c2ccc(Cl)s2)nc1Nc1ccc(Cc2nc(C(=O)O)c[nH]2)cc1 [Example 306, 2-[[4-[[2-(5-Chloro-2-thienyl)-5-ethyl-6-methyl-pyrimidin-4-yl]amino]phenyl]methyl]-1H-imidazole-4-carboxylic acid]",
> 1000 nM,"CCCc1nc(Nc2ccc(C(=O)O)cc2)nc(-c2ccc(Cl)s2)n1 [Example 33, 4-((4-(5-chlorothiophen-2-yl)-6-propyl-1,3,5-triazin-2-yl)amino)benzoic acid]",
> 1000 nM,"NC(=O)C[C@H]1CC[C@H](Nc2cc(-c3cccc(Cl)c3)nc3c2CCC3)CC1 [Example 96, Trans-2-(4-((2-(3-Chlorophenyl)-6,7-dihydro-5H-cyclopenta[b]pyridin-4-yl)amino)cyclohexyl)acetamide hydrochloride]",

IC50 (PDE4D7 without asterisk),Structure (SMILES),IC50
,"CN1CCN(c2cc(Nc3ccc(CC(N)=O)cc3)c3c(n2)CCC3)CC1 [Example 253, 2-(4-((2-(4-methylpiperazin-1-yl)-6,7-dihydro-5H-cyclopenta[b]pyridin-4-yl)amino)phenyl)acetamide hydrochloride]",> 1000 nM
> 1000 nM,"OCCc1ccc(Cc2cc(C(F)(F)F)nc(OC3CCCC3)n2)cc1 [Example 202, 2-(4-((2-(Cyclopentyloxy)-6-(trifluoromethyl)pyrimidin-4-yl)methyl)phenyl)ethanol]",
> 1000 nM,"NC(=O)Cc1ccc(Nc2cc(-c3cccc(Cl)c3)nc3c2CCC3)nc1 [Example 94, 2-(6-((2-(3-Chlorophenyl)-6,7-dihydro-5H-cyclopenta[b]pyridin-4-yl)amino)pyridin-3-yl)acetamide hydrochloride]",
< 1000 nM,"CCc1cc(Cc2ccc(CC(N)=O)cc2)nc(C2CCCC2)n1 [Example 226, 2-(4-((2-Cyclopentyl-6-ethylpyrimidin-4-yl)methyl)phenyl)acetamide]",
> 1000 nM,"COC(=O)c1ccc(Nc2cc(-c3cccc(Cl)c3)nc3c2CCC3)cc1 [Example 87, Methyl 4-((2-(3-chlorophenyl)-6,7-dihydro-5H-cyclopenta[b]pyridin-4-yl)amino)benzoatehydrochloride]",
< 1000 nM,"CC(C)c1nc(Nc2ccc(C(=O)O)cc2)nc(-c2ccc(Cl)s2)n1 [Example 29, 4-(4-(5-chlorothiophen-2-yl)-6-isopropyl-1,3,5-triazin-2-ylamino)benzoic acid]",
> 1000 nM,"OCCc1ccc(Nc2cc(-c3ccc[nH]3)nc3c2CCC3)cc1 [Example 132, 2-(4-((2-(1H-Pyrrol-2-yl)-6,7-dihydro-5H-cyclopenta[b]pyridin-4-yl)amino)phenyl)ethanol hydrochloride]",
> 1000 nM,"CCCc1nc(Nc2ccc(CC(=O)O)cc2)nc(-c2ccc(Cl)s2)n1 [Example 32, 2-(4-((4-(5-chlorothiophen-2-yl)-6-propyl-1,3,5-triazin-2-yl)amino)phenyl)acetic acid]",
> 1000 nM,"OC[C@H]1CC[C@H](Nc2cc(-c3cccc(Cl)c3)nc3c2CCC3)CC1 [Example 93, Trans-4-((2-(3-Chlorophenyl)-6,7-dihydro-5H-cyclopenta[b]pyridin-4-yl)amino)cyclohexyl-methanol hydrochloride]",
< 1000 nM,"NC(=O)Cc1ccc(Nc2cc(-c3cccc(Cl)c3)nc(C3CC3)c2)cc1 [Example 139, 2-(4-((2-(3-Chlorophenyl)-6-cyclopropylpyridin-4-yl)amino)phenyl)acetamide hydrochloride]",
< 1000 nM,"Clc1cccc(-c2nc3c(c(Nc4ccc(Cc5nn[nH]n5)cc4)n2)SCCC3)c1 [Example 313, 2-(3-Chlorophenyl)-N-[4-(2H-tetrazol-5-ylmethyl)phenyl]-7,8-dihydro-6H-thiopyrano[3,2-d]pyrimidin-4-amine]",
< 1000 nM,"CCc1cc(Nc2ccc(CCO)cc2)nc(C2CCCC2)n1 [Example 222, 2-(4-((2-Cyclopentyl-6-ethylpyrimidin-4-yl)amino)phenyl)ethanol]",
> 1000 nM,"OCCc1ccc(Nc2cc(-c3cc(Cl)cc(Cl)c3)nc3c2CCC3)cc1 [Example 158, 2-(4-((2-(3,5-Dichlorophenyl)-6,7-dihydro-5H-cyclopenta[b]pyridin-4-yl)amino)phenyl)ethanol hydrochloride]",
> 1000 nM,"NC(=O)CCCNc1nc(-c2cccc(Cl)c2)nc2c1CCC2 [Example 178, 4-((2-(3-Chlorophenyl)-6,7-dihydro-5H-cyclopenta[d]pyrimidin-4-yl)amino)butanamide]",
> 1000 nM,"NC(=O)Cc1ccc(Nc2cc(-c3ccc(Cl)cc3)nc3c2CCC3)cc1 [Example 148, 2-(4-((2-(4-Chlorophenyl)-6,7-dihydro-5H-cyclopenta[b]pyridin-4-yl)amino)phenyl)acetamide hydrochloride]",
> 1000 nM,"CCOC(=O)Cc1ccc(Nc2cc(CC)nc(-c3cccc(Cl)c3)n2)cc1 [Example 185, Ethyl 2-(4-((2-(3-chlorophenyl)-6-ethylpyrimidin-4-yl)amino)phenyl)acetate]",
> 1000 nM,"CCc1cc(Cc2ccc(C(C)(C)C(N)=O)cc2)nc(-c2cccc(Cl)c2)n1 [Example 196, 2-(4-((2-(3-Chlorophenyl)-6-ethylpyrimidin-4-yl)methyl)phenyl)-2-methylpropanamide]",
> 1000 nM,"OCCc1ccc(Nc2cc(C3CCCC3)nc3c2CCC3)cc1 [Example 249, 2-(4-((2-cyclopentyl-6,7-dihydro-5H-cyclopenta[b]pyridin-4-yl)amino)phenyl)ethanol hydrochloride]",

Structure (SMILES),IC50 (PDE4D7 without asterisk),IC50
"CCc1cc(Nc2ccc(CC(N)=O)cc2)nc(-c2cccc(Cl)c2)n1 [Example 171, 2-(4-((2-(3-Chlorophenyl)-6-ethylpyrimidin-4-yl)amino)phenyl)acetamide]",< 1000 nM,
"CCc1nc(Nc2ccc(CC(=O)O)cc2)nc(-c2cccc(Cl)c2)n1 [Example 39, 2-(4-((4-(3-chlorophenyl)-6-ethyl-1,3,5-triazin-2-yl)amino)phenyl)acetic acid]",> 1000 nM,
